Source: patent US20250339409A1, “USES OF PAN BET INHIBITORS” (VYNE THERAPEUTICS INC., priority 2021, published 2025)

Test system: 92 target genes related to melanogenesis
Experiment: RHE vitiligo model: gene expression analysis (TaqMan low density array, RT-qPCR)
Type: cell-based, human
Set-up: key to FC of XPC gene expression / FC of GNAS gene expression / FC of ATP7A gene expression / FC of TYR gene expression / FC of RAB27A gene expression / FC of KITLG gene expression / FC of ADCY2 gene expression: fold change in expression by comparative Ct (ΔΔCt) method
Procedure: At the end of the treatments, total RNAs is extracted from 3 epidermis per condition (n=3) using the Qiagen RNeasy kit (Qiagen; 74106). Epidermis is rinsed with cold PBS and lysed in the ad hoc buffer provided in the kit. Extraction is performed according to the supplier's recommendations. The collected RNAs is stored at −80° C.
The RNA concentration is determined by spectrophotometric measurement (QIAxpert, Qiagen) and the RNA quality is analyzed by capillarity electrophoresis (Agilent Bioanalyzer 2100-Agilent RNA 6000 Nano Kit, 5067-1511). The integrity of the total RNA is assessed by visualization of intact ribosomal RNA bands. For the total RNA from higher eukaryotes, the size of the ribosomal bands should be 1.9 kb for the 18S-RNA and 4.7 kb for the 28S-RNA. The intensity of the band corresponding to the 28S RNA must be greater than the intensity of the band corresponding to the 18S-RNA (left profile, in image below). Small and diffuse bands representing low molecular weight RNAs (tRNA and 5S ribosomal RNA) may be present. Degradation of the RNA is apparent as a smearing of ribosomal RNA bands and high molecular weight background as shown below (right profile, in image below).
Reverse transcription is performed with the high-capacity RNA-to-cDNA kit (Applied Biosystems; 438706) from total RNA according to the manufacturer's instructions. The cDNAs are then stored at −20° C. until use in polymerase chain reactions.
The microfluidic TaqMan qPCR arrays (or TaqMan low density arrays) were designed by StratiCELL and manufactured on demand by Applied Biosystems. […]
The TaqMan arrays are processed as described by the manufacturer's instructions (Micro Fluidic Card Getting Started Guide, Applied Biosystems). Briefly, cDNAs are mixed with a specific buffer (TaqMan Fast Advanced Master Mix, 4444557, Applied Biosystems) before being injected into the arrays and dispersed into the wells by centrifugation. Arrays are sealed and qPCRs are run using the Quantstudio7 Real-Time PCR System (Applied Biosystems) and its software (QuantStudio real time PCR Software v1.3. software, Applied Biosystems).
Threshold cycles (Ct) are obtained for each gene. Results files are exported from the qPCR device and analyzed using the DataAssist Software (v3.00, Applied Biosystems) designed to perform relative quantification of gene expression using the comparative Ct (ΔΔCt) method, through a combination of statistical analysis.
The data obtained for the conditions treated with the formulations is compared to the untreated condition or to the condition treated with the vehicle. The effects of the cytokine cocktail stimulation are analyzed as well by comparison of the data obtained for the untreated control (unstimulated) to the data obtained for the stimulated untreated control. The Ct values are normalized to the mean Ct of 3 housekeeping genes present on the array. The maximum Ct cut-off value was fixed at 36 cycles meaning that Ct values above 36 are not considered in the analysis. […]

[1] = Stimulated + BETi1 0.001% vs Stimulated + BETi1 vehicle, results after correction
[2] = Stimulated + BETi1 0.001% vs Stimulated + BETi1 vehicle, results after correction, inconclusive, Ct of some replicates above 36
[3] = Stimulated + BETi1 0.001% vs Stimulated + BETi1 vehicle, results as originally presented (transcription error)
[4] = Stimulated + BETi1 0.001% vs Stimulated + BETi1 vehicle, results as originally presented (transcription error), inconclusive, Ct of some replicates above 36
[5] = Stimulated + BETi1 1% vs Stimulated + BETi1 vehicle, results after correction
[6] = Stimulated + BETi1 1% vs Stimulated + BETi1 vehicle, results after correction, inconclusive, Ct of some replicates above 36
[7] = Stimulated + BETi1 1% vs Stimulated + BETi1 vehicle, results as originally presented (transcription error for some genes)
[8] = Stimulated + BETi1 1% vs Stimulated + BETi1 vehicle, results as originally presented (transcription error for some genes), inconclusive, Ct of some replicates above 36
[9] = Stimulated RHE treated with BETi1 at 0.01% vs BETi1 vehicle
[10] = Stimulated RHE treated with BETi1 at 0.1% vs BETi1 vehicle
[11] = stimulated RHE, vs stimulated + vehicle
[12] = stimulated RHE, vs stimulated + vehicle, listed as BETi1 0.1%
[13] = stimulated RHE, vs stimulated + vehicle, listed as BETi1 1%

Cn1cc(-c2cccc(O)c2Oc2ccccc2)c2cc[nH]c2c1=O [BETi1]
WNT signaling pathway upregulation, increase (1% concentration, relative to vehicle / stimulated control): 10 fold
FC of AP1M1 gene expression [1]: 0.7447
FC of APAF1 gene expression [1]: 1.5797
FC of BCL2 gene expression [1]: 0.7462
FC of HPS4 gene expression [1]: 0.6711
FC of POMC gene expression [1]: 0.5586
FC of ASIP gene expression [2]: 0.7104
FC of CALML6 gene expression [2]: 0.7104
FC of GNAO1 gene expression [2]: 0.7104
FC of AP1M1 gene expression [3]: 0.6303
FC of APAF1 gene expression [3]: 3.5532
FC of BCL2 gene expression [3]: 1.3312
FC of HPS4 gene expression [3]: 0.4147
FC of POMC gene expression [3]: 0.3574
FC of ASIP gene expression [4]: 0.6303
FC of GNAO1 gene expression [4]: 0.6303
FC of AIM1 gene expression [5]: 0.4502
FC of AP1S1 gene expression [5]: 0.6116
FC of ATP2A2 gene expression [5]: 0.2632
FC of ATP7A gene expression [5]: 0.4094
FC of BAD gene expression [5]: 0.2547
FC of BCL2 gene expression [5]: 0.5772
FC of CREBBP gene expression [5]: 0.3195
FC of DVL1 gene expression [5]: 0.4492
FC of EDN1 gene expression [5]: 0.0395
FC of EDNRB gene expression [5]: 0.1544
FC of GADD45A gene expression [5]: 0.2375
FC of GNAI1 gene expression [5]: 0.3672
FC of GNAS gene expression [5]: 0.4273
FC of HPS1 gene expression [5]: 0.5127
FC of HPS4 gene expression [5]: 0.3088
FC of IL1A gene expression [5]: 0.0124
FC of IL1B gene expression [5]: 0.0208
FC of KIT gene expression [5]: 0.6404
FC of MAPK14 gene expression [5]: 0.3927
FC of MLPH gene expression [5]: 0.3039
FC of MYO5A gene expression [5]: 0.4524
FC of OCA2 gene expression [5]: 0.293
FC of PCNA gene expression [5]: 7.0134
FC of POMC gene expression [5]: 0.1039
FC of PTGER3 gene expression [5]: 0.4259
FC of RAB3A gene expression [5]: 14.5685
FC of RAB27A gene expression [5]: 0.2763
FC of RAB32 gene expression [5]: 0.1471
FC of RAB38 gene expression [5]: 0.3579
FC of SLC24A5 gene expression [5]: 0.1051
FC of SNAP25 gene expression [5]: 0.2366
FC of SOX9 gene expression [5]: 0.0882
FC of SOX10 gene expression [5]: 0.4034
FC of STX6 gene expression [5]: 0.3683
FC of TYR gene expression [5]: 0.405
FC of USF1 gene expression [5]: 0.497
FC of WNT16 gene expression [5]: 10.0801
FC of XPC gene expression [5]: 1.6569
FC of ASIP gene expression [6]: 0.4753
FC of CALML6 gene expression [6]: 0.4753
FC of CAMK2A gene expression [6]: 0.4753
FC of GNAO1 gene expression [6]: 0.4753
FC of PTGER1 gene expression [6]: 0.4753
FC of AIM1 gene expression [7]: 0.4753
FC of AP1S1 gene expression [7]: 0.727
FC of ATP2A2 gene expression [7]: 0.293
FC of ATP7A gene expression [7]: 0.4273
FC of BAD gene expression [7]: 0.2763
FC of BCL2 gene expression [7]: 0.6404
FC of CREBBP gene expression [7]: 0.3672
FC of DVL1 gene expression [7]: 0.4524
FC of EDN1 gene expression [7]: 0.1039
FC of EDNRB gene expression [7]: 0.2375
FC of GADD45A gene expression [7]: 0.2632
FC of GNAI1 gene expression [7]: 0.3927
FC of GNAS gene expression [7]: 0.4502
FC of HPS1 gene expression [7]: 0.6116
FC of HPS4 gene expression [7]: 0.3579
FC of IL1A gene expression [7]: 0.0395
FC of IL1B gene expression [7]: 0.0882
FC of KIT gene expression [7]: 1.6569
FC of MAPK14 gene expression [7]: 0.405
FC of MLPH gene expression [7]: 0.3195
FC of MYO5A gene expression [7]: 0.4753
FC of OCA2 gene expression [7]: 0.3088
FC of PCNA gene expression [7]: 7.0134
FC of POMC gene expression [7]: 0.1471
FC of PTGER3 gene expression [7]: 0.4492
FC of RAB3A gene expression [7]: 14.5685
FC of RAB27A gene expression [7]: 0.3039
FC of RAB32 gene expression [7]: 0.2366
FC of RAB38 gene expression [7]: 0.3683
FC of SLC24A5 gene expression [7]: 0.1544
FC of SNAP25 gene expression [7]: 0.2547
FC of SOX9 gene expression [7]: 0.1051
FC of SOX10 gene expression [7]: 0.4094
FC of STX6 gene expression [7]: 0.4034
FC of TYR gene expression [7]: 0.4259
FC of USF1 gene expression [7]: 0.5772
FC of WNT16 gene expression [7]: 10.0801
FC of XPC gene expression [7]: 1.8367
FC of ASIP gene expression [8]: 0.5127
FC of CALML6 gene expression [8]: 0.497
FC of CAMK2A gene expression [8]: 0.4753
FC of GNAO1 gene expression [8]: 0.4753
FC of PTGER1 gene expression [8]: 0.4753
FC of AP1S1 gene expression [9]: 1.3312
FC of ASIP gene expression [9]: 0.6303
FC of CALML6 gene expression [9]: 0.6303
FC of CAMK2A gene expression [9]: 0.6303
FC of GADD45A gene expression [9]: 0.3574
FC of GNAO1 gene expression [9]: 0.6303
FC of POMC gene expression [9]: 0.4147
FC of RAB3A gene expression [9]: 3.5532
FC of ADCY2 gene expression [10]: 0.1137
FC of AP1M1 gene expression [10]: 0.6311
FC of ATP2A2 gene expression [10]: 0.2769
FC of BAD gene expression [10]: 0.2735
FC of CALML6 gene expression [10]: 0.5429
FC of CAMK2A gene expression [10]: 0.5043
FC of EDN1 gene expression [10]: 0.0413
FC of EDNRB gene expression [10]: 0.2737
FC of GADD45A gene expression [10]: 0.1803
FC of GNAI1 gene expression [10]: 0.5815
FC of HPS4 gene expression [10]: 0.4224
FC of IL1A gene expression [10]: 0.0454
FC of IL1B gene expression [10]: 0.0727
FC of KITLG gene expression [10]: 1.8415
FC of MAPK14 gene expression [10]: 0.4724
FC of MLPH gene expression [10]: 0.355
FC of MYO5A gene expression [10]: 0.5462
FC of PCNA gene expression [10]: 3.2615
FC of POMC gene expression [10]: 0.1665
FC of PPIA gene expression [10]: 1.6969
FC of PTGER3 gene expression [10]: 0.4799
FC of RAB3A gene expression [10]: 10.8195
FC of RAB32 gene expression [10]: 0.2378
FC of RAB38 gene expression [10]: 0.5643
FC of SLC24A5 gene expression [10]: 0.272
FC of SOX9 gene expression [10]: 0.1155
FC of SOX10 gene expression [10]: 0.4196
FC of STX6 gene expression [10]: 0.4214
FC of WNT16 gene expression [10]: 8.7922
RQ (fold change) AP1S1 [11]: 1.3312
RQ (fold change) APAF1 [11]: 1.5797
RQ (fold change) HSP4 [11]: 0.6711
RQ (fold change) KITLG [11]: 1.8415
RQ (fold change) POMC [11]: 0.5586
RQ (fold change) PPIA [11]: 1.6969
RQ (fold change) XPC [11]: 1.6569
RQ (fold change) RAB3A (stimulated RHE, vs stimulated + vehicle, listed as BETi1 0.01%): 3.5532
RQ (fold change) EDN1 [12]: 0.0413
RQ (fold change) IL1A [12]: 0.0454
RQ (fold change) IL1B [12]: 0.0727
RQ (fold change) PCNA [12]: 3.2615
RQ (fold change) RAB3A [12]: 10.8195
RQ (fold change) SOX9 [12]: 0.1155
RQ (fold change) WNT16 [12]: 8.7922
RQ (fold change) EDN1 [13]: 0.0395
RQ (fold change) IL1A [13]: 0.0124
RQ (fold change) IL1B [13]: 0.0208
RQ (fold change) PCNA [13]: 7.0134
RQ (fold change) RAB3A [13]: 14.5685
RQ (fold change) SOX9 [13]: 0.0882
RQ (fold change) WNT16 [13]: 10.0801
